Results taken from patent US20250288583A1, “Treatment of Mucus Hypersecretion” (priority 2024, published 2025).

How the values were obtained:
philtrum skin = test: Cooling duration bioassay on philtrum skin; type: in vivo, human
From the text: FIG. 1. Comparison of cooling duration of various p-menthanecarboxamide analogs on philtrum skin versus ocular margins. The philtrum skin is keratinized, but the ocular margins are not. The test substances numbered 1 to 11 are: D-Ala-OiPr, Gly-OiPr, D-Ala-OEt, D-Ala-OMe, D-Ala-GlynPr, GlynPr, D-Ala-OnBu, GlynBu, GlyOEt, L-Ala-OEt, and N-Me-D-Ala-OEt, respectively. Two outliers (1 and 2) were identified as preferred embodiments because they preferentially cool the ocular margins. The nasal cavity surfaces like the ocular margins are not keratinized.
Cooling agents have been assayed in various ways depending on intended use. For example, for the skin the test substance can be applied on philtrum skin, using descriptions of coolness on a scale of 0 to 3. For the ocular surface, the active ingredient can be applied to the closed eyelids using a wipe. In the oral cavity, drug applications are on the posterior dorsal surface of the tongue. For the oropharyngeal surface, the cooling agent may be applied as an orally disintegrating tablet. The ability of a cooling agent to antagonize a noxious stimuli may also be tested, using nociception from citric acid or chili pepper sauce. Responses are usually measured using a Visual Analog Scale with a numerical rating. For nasal responses, however, such procedures have not been standardized. Some endpoints to consider are open and comfortable breathing, the presence or absence of sniffles, and the secretion of phlegm.

Stability of the solid = type: physicochemical; details: room temperature and physiological pH
oral cavity = details: Johnson et al., 2018; cited from earlier work

SMILES | Philtrum Skin (philtrum skin; Table 6, cooling duration, keratinized skin) [min] | Stability (Stability of the solid) | Sensory qualities in the oral cavity compared with WS-5 (oral cavity) | Philtrum Skin (philtrum skin; Table 7, Gly esters) [min]
CC(C)OC(=O)[C@@H](C)NC(=O)[C@@H]1C[C@H](C)CC[C@H]1C(C)C [D-Ala-OiPr, (R)-2-[((1R,2S,5R)-2-isopropyl-5-methyl-cyclohexanecarbonyl)amino]-propionic acid i-propyl ester] | 34 |  |  | 
CC(C)OC(=O)CNC(=O)[C@@H]1C[C@H](C)CC[C@H]1C(C)C [GlyOiPr, [((1R,2S,5R)-2-isopropyl-5-methyl-cyclohexanecarbonyl)-amino]-acetic acid isopropyl ester] |  | stable at room temperature and physiological pH | more refreshing and less bitter than WS-5 | 27
